Assay results as given in US20230381141A1, “CONJOINT THERAPIES FOR TREATING VIRAL INFECTIONS” (priority 2022, published 2023).
Several values for one entry are separate records, joined by “and”; a condition that tells them apart may be missing. Equal values may be shown once. Entries after “also recorded” stand apart in the source; their conditions may differ. Read-outs that look alike come from different tables or passages of the source.

How the values were obtained:
[1] = target: SARS-CoV-2 PL^pro (Severe acute respiratory syndrome coronavirus 2, UniProt P0DTD1); test: biochemical; conditions: for inhibition at 50 µM: read-out: inhibition of PL^pro activity in library screening
[2] = target: PL^pro deubiquitinase activity (Severe acute respiratory syndrome coronavirus 2, UniProt P0DTD1); test: PL^pro deubiquitinase substrate assay; assay type: biochemical, SARS-CoV-2
Method: (§1) Briefly, in each assay, the enzyme was loaded into each well in the appropriate buffer, next the compounds were added into the well and incubated for 10-60 min at 37° C. The reaction was initiated by addition of substrate to each well and the fluorescent signal was read for 60 min at the appropriate excitation/emission.
(§2) For the PL^pro and PL^pro deubiquitinase assays, DTT was added to the assay buffer to achieve 1 mM DTT before the assay. A 10 mM stock of compounds was prepared in DMSO, this stock was diluted in assay buffer to achieve a 10× of the desire concentration in the well. Next, the PL^pro and deubiquitinase substrates were diluted to 42 μM and 0.5 μM respectively in the assay buffer. Then, PL^pro enzyme was diluted to 2.5 ng/μL and 6 ng/μL for the PL^pro and deubiquitinase assays respectively in the assay buffer. […] The reaction was started by adding 12.5 μL of the substrate to each well, the reaction was monitored for 1 h at excitation at 360 nm; emission at 460 nm. For the ISG15 substrate, PL^pro enzyme at 0.1 nM was incubated with compounds for lh and the reaction was initiated by adding ISG15-RH110 substrate at 500 nM, the reaction was monitored for 1-hour excitation at 485 nm; emission at 535 nm. […] Following the incubation, 2 μL of substrate at 25 μM was added into the wells and the fluorescent signal (ex/em 380/455 nm) was recorded for 1 h at 37° C.

[3] = target: PL^pro ISG15 cleavage activity (Severe acute respiratory syndrome coronavirus 2, UniProt P0DTD1); test: PL^pro ISG15 substrate (deISGylase) assay; assay type: biochemical, SARS-CoV-2
Method: as §1, §2

[4] = target: SARS-CoV-2 M^pro (Severe acute respiratory syndrome coronavirus 2, UniProt P0DTD1); test: M^pro activity assay, fluorogenic substrate; assay type: biochemical; conditions: alone, FIG. 7B
[5] = tested on: IFN induction (IRF3 reporter); test: IFN induction assay, IRF3 binding site Firefly luciferase reporter with poly(I:C); assay type: cell-based
[6] = tested on: IFN-β induction in HEK293T cells expressing SARS-CoV-2 PL^pro; assay type: cell-based
[7] = tested on: SARS-CoV-2; conditions: cited from earlier work; for EC50: read-out: antiviral EC50; for EC90: read-out: antiviral EC90
[8] = tested on: Vero E6 normal cells; conditions: cited from earlier work
[9] = target: spike protein-ACE2 complex (UniProt P0DTC2+Q9BYF1); conditions: separate study; cited from earlier work
[10] = cited from earlier work
[11] = Brain drug level in mice by LC-MS/MS; conditions: for concentration at 2 h: male, C57BL/6, mouse, brain, po, 30 mg/kg; for brain permeability: pilot PK studies in mice
Excerpt: (§3) Two hours after dosing, mice were anesthetized and blood was collected following transcardial puncture for the isolation of plasma. Mice were then perfused transcardially with saline and brain tissue removed.

[12] = Plasma drug level in mice by LC-MS/MS; conditions: C57BL/6, mouse
Method: Following compound administration, mice were euthanized at 2 hours, followed by perfusion.
as §3

[13] = target: PL^pro (Severe acute respiratory syndrome coronavirus 2, UniProt P0DTD1); conditions: read-out: reported PL^pro IC50; cited from earlier work
[14] = PL^pro peptide substrate, dose response, read-out: IC50 PL^pro inhibition
[15] = in combination with DDL-750 or DDL-750/DDL-751, FIG. 2
[16] = 1 μM, poly I:C, Wuhan strain PL^pro
[17] = Vero E6 cells infected with SARS-CoV-2
[18] = po, 30 mg/kg, plasma levels in combination DDL-701+DDL-750, mice, oral gavage 30 mg/kg, combination, FIG. 5
[19] = po, 30 mg/kg, plasma levels, mice, oral gavage 30 mg/kg, given alone, FIG. 5
[20] = male, oral, plasma levels in combination, mice, DDL-701 + DDL-750 both 30 mg/Kg oral, FIG. 9
[21] = male, po, 30 mg/kg, plasma levels, mice, oral 30 mg/Kg, given alone, FIG. 9
[22] = SARS-CoV-2 infected VeroE6 cells
[23] = read-out: Cmax in human plasma after oral dosing, oral dosing

Chain of spike protein-ACE2 complex (Q9BYF1 18-805, one chain of several): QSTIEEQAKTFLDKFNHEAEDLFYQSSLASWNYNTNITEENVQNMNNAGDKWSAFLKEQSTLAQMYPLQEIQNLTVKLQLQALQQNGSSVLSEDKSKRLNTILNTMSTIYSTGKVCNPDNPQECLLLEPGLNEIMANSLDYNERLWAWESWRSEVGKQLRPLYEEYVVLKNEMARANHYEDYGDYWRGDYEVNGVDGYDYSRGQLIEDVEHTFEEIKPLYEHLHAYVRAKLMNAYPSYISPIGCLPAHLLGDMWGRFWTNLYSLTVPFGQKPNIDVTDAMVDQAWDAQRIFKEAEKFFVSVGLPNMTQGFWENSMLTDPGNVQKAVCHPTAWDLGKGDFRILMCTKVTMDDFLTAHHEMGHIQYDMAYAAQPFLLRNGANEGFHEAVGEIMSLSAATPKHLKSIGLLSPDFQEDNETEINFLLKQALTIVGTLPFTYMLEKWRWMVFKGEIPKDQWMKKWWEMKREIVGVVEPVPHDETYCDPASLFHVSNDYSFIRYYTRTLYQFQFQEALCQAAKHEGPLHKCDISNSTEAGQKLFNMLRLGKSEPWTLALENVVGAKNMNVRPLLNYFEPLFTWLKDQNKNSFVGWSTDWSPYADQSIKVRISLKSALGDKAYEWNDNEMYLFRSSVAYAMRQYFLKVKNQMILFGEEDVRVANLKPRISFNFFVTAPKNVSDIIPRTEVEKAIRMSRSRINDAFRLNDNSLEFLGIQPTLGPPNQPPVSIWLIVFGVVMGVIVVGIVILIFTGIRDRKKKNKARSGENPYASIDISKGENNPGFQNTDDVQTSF

## CC1=NN(c2ccc(C)c(C)c2)C(=O)/C1=N/Nc1cccc(-c2cccc(C(=O)O)c2)c1O [DDL-701, eltrombopag]
[1]; DDL-701/750 at 50 μM/0.1 μM, FIG. 7A
  inhibition of PL^pro by DDL-701 in combination with DDL-750: not affected
[1]; DDL-701 alone at 50 μM, FIG. 7A
  inhibition of PL^pro: almost complete
[1]; [14]
  IC50: 13 µM
[1]; [15]
  PLpro inhibition in combination: inhibits; also recorded: continues to show its inhibition
[1]
  inhibition at 50 µM: > 80%
[2]; deubiquitinase substrate, dose response
  IC50: 21 µM
[2]; [15]
  deubiquitinase inhibition in combination: inhibits
[3]; ISG15 substrate, dose response
  IC50: 8 µM
[3]; [15]
  ISG15 activity inhibition in combination: inhibits
[4]
  activity in M^pro activity assay: did not show activity; also recorded: not M^pro
[5]; at 10 and 1 μM
  IFN induction: approximately 1.5 fold over DMSO
[6]; [16]
  rescue of IFN-β induction in the presence of PL^pro: modestly yet significantly rescued; also recorded: partially restored
[6]; higher concentrations than 1 μM
  rescue of IFN-β induction in the presence of PL^pro: did not rescue induction
[7]; [17]
  EC50: 8.2 µM
  EC90: 9.5 µM
[7]; Vero cells infected with SARS-CoV-2 (Sangeun J. et al., 2020)
  EC50: ~8 µM
[8]
  CC50: > 50 µM
[9]
  effect on spike protein-ACE2 complex: bind and reduce the stability
[10]; human, single oral dose of 75 mg, tablet
  AUC: 168 µg·h/mL
[10]; read-out: plasma Cmax, human, single oral dose of 75 mg, tablet
  Cmax: 25 to 36 µM
[10]; read-out: steady state drug level in plasma, Cmax, human, 75 mg tablet, oral dosing, steady state
  Cmax: ~50 µM
[11]
  concentration at 2 h: ~1 µM and ~442 ng/g
  brain permeability: brain-permeable
[11]; mice, oral 30 mg/Kg, 2 hours
  brain penetration relative to nirmatrelvir: > 5 fold
[12]; [18]
  concentration at 2 h: 4 µM
[12]; [19]
  concentration at 2 h: ~11 µM
[12]; [20]
  concentration at 2 h: ~4 µM and 1630 ng/mL
[12]; [21]
  concentration at 2 h: ~14 µM and ~6210 ng/mL

## CC1=NN(c2ccc(C)c(C)c2)C(=O)/C1=N/Nc1cccc(-c2cccc(-c3nnn[nH]3)c2)c1O [DDL-713, thrombopoietin receptor agonist-1]
[1]; [14]
  IC50: ~54 µM
[1]; compounds at 50 μM
  inhibition at 50 µM: > 80%

## COc1cc(C(=O)NS(=O)(=O)c2ccccc2C)ccc1Cc1cn(C)c2ccc(NC(=O)OC3CCCC3)cc12 [DDL-715, zafirlukast]
[1]
  IC50: ~24 µM
[1]; compounds at 50 μM
  inhibition at 50 µM: > 80%
[5]; at 10 and 1 μM
  IFN induction: approximately 1.5 fold over DMSO
[6]; [16]
  rescue of IFN-β induction in the presence of PL^pro: not
[6]; any dose
  rescue of IFN-β induction in the presence of PL^pro: Neither DDL-715 nor DDL-750 rescued IFN-β induction
[10]; human, in vivo, po
  Cmax: ~0.5 µM
[12]; [19]
  concentration at 2 h: ~4 µM

## CC(C)(C)[C@H](NC(=O)C(F)(F)F)C(=O)N1C[C@H]2[C@@H]([C@H]1C(=O)N[C@H](C#N)C[C@@H]1CCNC1=O)C2(C)C [DDL-750, nirmatrelvir]
[5]; at 1 μM
  IFN induction: approximately 1.3 fold over DMSO
[6]; [16]
  rescue of IFN-β induction in the presence of PL^pro: not
[6]; any dose
  rescue of IFN-β induction in the presence of PL^pro: Neither DDL-715 nor DDL-750 rescued IFN-β induction
[7]; [22]
  EC50: 0.074 µM
  EC90: 0.155 µM
[8]
  CC50: > 100 µM
[11]
  concentration at 2 h: ~180 nM and ~91 ng/g
  brain permeability: lower brain-permeability
[12]; [18]
  concentration at 2 h: 0.1 µM
[12]; [19]
  concentration at 2 h: ~0.4 µM
[12]; [20]
  concentration at 2 h: ~100 nM and ~55 ng/mL
[12]; [21]
  concentration at 2 h: ~500 nM and ~234 ng/mL

## CC(C)c1nc(CN(C)C(=O)N[C@H](C(=O)N[C@@H](Cc2ccccc2)C[C@H](O)[C@H](Cc2ccccc2)NC(=O)OCc2cncs2)C(C)C)cs1 [DDL-751, ritonavir]
[5]; at the concentration tested
  IFN induction: did not produce IFN induction

## CCCCc1nc(Cl)c(CO)n1Cc1ccc(-c2ccccc2-c2nn[nH]n2)cc1 [losartan]
[13]
  IC50: ~13 µM
[10]; [23]
  Cmax: ~0.5 µM

## O=C(O)c1cc(F)c2nc(N3[C@@H]4CC[C@H]3C[C@@H](OCc3c(-c5ccccc5OC(F)(F)F)noc3C3CC3)C4)sc2c1 [tropifexor]
[13]
  IC50: ~6 µM
[10]; [23]
  Cmax: < 0.1 µM
